Publication PMC6934184, “Selective DNA-PKcs inhibition extends the therapeutic index of localized radiotherapy and chemotherapy” (The Journal of Clinical Investigation, 2019)

Target: T1, BRSK1 (SAD1) (Homo sapiens, UniProt Q8TDC3)
T1 construct: purchased Thermo Fisher Scientific (Life Technologies) SelectScreen
Assay: SelectScreen Z'LYTE
Assay type: biochemical
Summary of the method: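 NU5455 was profiled across the SelectScreen Broad panel of kinase activity and binding assays. Z'LYTE reactions such as CSF1R ran at apparent Km ATP, while the Adapta CAMK1 assay used ATP listed as 10. Values are given as percent.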

T1 sequence (Q8TDC3 whole entry): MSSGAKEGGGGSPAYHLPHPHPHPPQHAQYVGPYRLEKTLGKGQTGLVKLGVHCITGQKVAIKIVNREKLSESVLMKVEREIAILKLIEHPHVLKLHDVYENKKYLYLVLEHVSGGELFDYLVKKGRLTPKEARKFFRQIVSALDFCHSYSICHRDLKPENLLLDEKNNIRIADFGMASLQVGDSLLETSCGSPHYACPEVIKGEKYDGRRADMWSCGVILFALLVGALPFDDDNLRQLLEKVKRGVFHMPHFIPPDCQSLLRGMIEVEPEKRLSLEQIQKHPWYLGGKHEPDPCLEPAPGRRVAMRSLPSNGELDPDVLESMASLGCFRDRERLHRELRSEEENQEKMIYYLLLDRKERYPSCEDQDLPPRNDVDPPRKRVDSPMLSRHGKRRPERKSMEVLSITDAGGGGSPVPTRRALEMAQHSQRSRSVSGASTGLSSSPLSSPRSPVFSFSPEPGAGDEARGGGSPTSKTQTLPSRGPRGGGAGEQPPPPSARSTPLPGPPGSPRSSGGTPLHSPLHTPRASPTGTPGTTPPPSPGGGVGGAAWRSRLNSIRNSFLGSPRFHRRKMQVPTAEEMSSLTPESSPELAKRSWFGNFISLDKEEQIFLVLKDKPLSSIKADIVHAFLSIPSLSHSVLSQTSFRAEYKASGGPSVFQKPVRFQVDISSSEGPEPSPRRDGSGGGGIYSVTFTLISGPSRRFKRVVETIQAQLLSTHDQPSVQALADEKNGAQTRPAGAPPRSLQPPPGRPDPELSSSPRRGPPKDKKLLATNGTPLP

CN(C(=O)CN1CCOCC1)c1ccc2sc3c(-c4cccc5c(=O)cc(N6CC7CCC(C6)O7)oc45)cccc3c2c1 [NU5455] was tested, and the inhibition at 1 µM was -1.1%.
